Data published in ChEMBL document CHEMBL1201862, “PubChem BioAssay data set” (2004).
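Where inhibition never reached the appropriate level, the endpoint shown equals the highest concentration tested. Otherwise, values were interpolated linearly from a five-concentration, 48-hour dose response in 96-well plates. GI50 marks 50% less growth.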 Calls of active or inactive are those of the source. Rule as the data show it: active = GI50 up to about 1.1 µM and inactive = higher.

Assays:
Assay in all cases: growth of human tumour cells (NCI), 48 h
[1] = tested on: TK-10
[2] = tested on: UACC-257
[3] = tested on: SK-OV-3
[4] = tested on: MCF7
[5] = tested on: DU-145
[6] = tested on: OVCAR-3
[7] = tested on: KM12
[8] = tested on: COLO 205
[9] = tested on: SF-295
[10] = tested on: OVCAR-8
[11] = tested on: Malme-3M
[12] = tested on: HCT-116
[13] = tested on: NCI/ADR-RES
[14] = tested on: NCI-H460
[15] = tested on: K562
[16] = tested on: HT-29
[17] = tested on: HCC 2998
[18] = tested on: SW-620
[19] = tested on: CAKI-1
[20] = tested on: ACHN
[21] = tested on: MOLT-4
[22] = tested on: U-251
[23] = tested on: MDA-MB-231
[24] = tested on: MDA-N
[25] = tested on: OVCAR-5
[26] = tested on: RPMI-8226
[27] = tested on: LOX IMVI
[28] = tested on: OVCAR-4
[29] = tested on: SK-MEL-5
[30] = tested on: IGROV-1
[31] = tested on: SF-539
[32] = tested on: A498
[33] = tested on: T47D
[34] = tested on: SR
[35] = tested on: SF-268
[36] = tested on: HCT-15
[37] = tested on: HOP-62
[38] = tested on: SNB-75
[39] = tested on: Hs-578T
[40] = tested on: SK-MEL-2
[41] = tested on: NCI-H23
[42] = tested on: UO-31
[43] = tested on: SN12C
[44] = tested on: SK-MEL-28
[45] = tested on: 786-0
[46] = tested on: A549
[47] = tested on: PC-3
[48] = tested on: CCRF-CEM
[49] = tested on: SNB-19
[50] = tested on: EKVX
[51] = tested on: HL-60

CC1CN=C(N(C(=O)Nc2ccccc2)C2CCCCC2)S1 (stereo unspecified)
GI50 [1]: 16.7 µM (inactive)
GI50 [2]: 16 µM (inactive)
GI50 [3]: 31.3 µM (inactive)
GI50 [4]: 16.6 µM (inactive)
GI50 [5]: 25.5 µM (inactive)
GI50 [6]: 17.7 µM (inactive)
GI50 [7]: 16.1 µM (inactive)
GI50 [8]: 19 µM (inactive)
GI50 [9]: 16.7 µM (inactive)
GI50 [10]: 25.9 µM (inactive)
GI50 [11]: 16.3 µM (inactive)
GI50 [12]: 16.7 µM (inactive)
GI50 [13]: 14.5 µM (inactive)
GI50 [14]: 16.6 µM (inactive)
GI50 [15]: 22.5 µM (inactive)
GI50 [16]: 17 µM (inactive)
GI50 [17]: 18.3 µM (inactive)
GI50 [18]: 14.1 µM (inactive)
GI50 [19]: 12.4 µM (inactive)
GI50 [20]: 13.5 µM (inactive)
GI50 [21]: 16.7 µM (inactive)
GI50 [22]: 16.9 µM (inactive)
GI50 [23]: 15.4 µM (inactive)
GI50 [24]: 15.6 µM (inactive)
GI50 [25]: 14.7 µM (inactive)
GI50 [26]: 18.8 µM (inactive)
GI50 [27]: 13.5 µM (inactive)
GI50 [28]: 14.5 µM (inactive)
GI50 [29]: 15.1 µM (inactive)
GI50 [30]: 17.8 µM (inactive)
GI50 [31]: 22.4 µM (inactive)
GI50 [32]: 14.4 µM (inactive)
GI50 [33]: 17.7 µM (inactive)
GI50 [34]: 15.9 µM (inactive)
GI50 [35]: 17.6 µM (inactive)
GI50 [36]: 14.4 µM
GI50 [37]: 41.2 µM (inactive)
GI50 [38]: 12.6 µM (inactive)
GI50 [39]: 20.7 µM (inactive)
GI50 [40]: 15.2 µM (inactive)
GI50 [41]: 16.4 µM (inactive)
GI50 [42]: 17.3 µM (inactive)
GI50 [43]: 16.6 µM (inactive)
GI50 [44]: 12.4 µM (inactive)
GI50 [45]: 17.3 µM (inactive)
GI50 [46]: 16.7 µM (inactive)
GI50 [47]: 15.5 µM (inactive)
GI50 [48]: 20.7 µM (inactive)
GI50 [49]: 29.2 µM (inactive)
GI50 [50]: 15.7 µM (inactive)
GI50 [51]: 14.8 µM (inactive)
